# Data reported in PubChem BioAssay (NCI).
#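 Test compounds were applied to cells in 96-well plates for 48 hours at 5 doses. GI50 marks 50% less growth. Definition used: TGI = concentration required for complete inhibition of growth.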
# Legend:
# Assay in all cases: NCI anticancer screen, dose series, 48 h
# [1] = test system: 786-0 renal
# [2] = test system: A498 renal
# [3] = test system: A549 NSCLC
# [4] = test system: ACHN renal
# [5] = test system: BT-549 breast
# [6] = test system: CAKI-1 renal
# [7] = test system: CCRF-CEM leukemia
# [8] = test system: COLO 205 colon
# [9] = test system: DU-145 prostate
# [10] = test system: EKVX NSCLC
# [11] = test system: HCC-2998 colon
# [12] = test system: HCT-116 colon
# [13] = test system: HCT-15 colon
# [14] = test system: HL-60(TB) leukemia
# [15] = test system: HOP-62 NSCLC
# [16] = test system: HOP-92 NSCLC
# [17] = test system: HS 578T breast
# [18] = test system: HT29 colon
# [19] = test system: K-562 leukemia
# [20] = test system: KM12 colon
# [21] = test system: LOX IMVI melanoma
# [22] = test system: M14 melanoma
# [23] = test system: MALME-3M melanoma
# [24] = test system: MCF7 breast
# [25] = test system: MDA-MB-231 breast
# [26] = test system: MDA-MB-435
# [27] = test system: MOLT-4 leukemia
# [28] = test system: NCI-H226 lung
# [29] = test system: NCI-H23 lung
# [30] = test system: NCI-H460 lung
# [31] = test system: NCI-H522 lung
# [32] = test system: NCI/ADR-RES ovarian
# [33] = test system: OVCAR-3 ovarian
# [34] = test system: OVCAR-4 ovarian
# [35] = test system: OVCAR-5 ovarian
# [36] = test system: OVCAR-8 ovarian
# [37] = test system: PC-3 prostate
# [38] = test system: RPMI-8226 leukemia
# [39] = test system: RXF 393 renal
# [40] = test system: SF-268 CNS
# [41] = test system: SF-295 CNS
# [42] = test system: SF-539 CNS
# [43] = test system: SK-MEL-2 melanoma
# [44] = test system: SK-MEL-28 melanoma
# [45] = test system: SK-MEL-5 melanoma
# [46] = test system: SK-OV-3 ovarian
# [47] = test system: SN12C renal
# [48] = test system: SNB-19 CNS
# [49] = test system: SNB-75 CNS
# [50] = test system: SR leukemia
# [51] = test system: SW-620 colon
# [52] = test system: T-47D breast
# [53] = test system: TK-10 renal
# [54] = test system: U251 CNS
# [55] = test system: UACC-257 melanoma
# [56] = test system: UACC-62 melanoma
# [57] = test system: UO-31 renal
# [58] = test system: IGROV1 ovarian
compound,measurement,setting,value
CN(C)CCN1C(=O)c2cccc3c(N)ccc(c23)C1=O,GI50,[1],14.1 µM
same,TGI,[1],> 25 µM
same,GI50,[2],11.5 µM
same,TGI,[2],> 25 µM
same,GI50,[3],9.04 µM
same,TGI,[3],> 25 µM
same,GI50,[4],7.9 µM
same,TGI,[4],> 25 µM
same,GI50,[5],> 25 µM
same,TGI,[5],> 25 µM
same,GI50,[6],4.86 µM
same,TGI,[6],15 µM
same,GI50,[7],9.63 µM
same,TGI,[7],> 25 µM
same,GI50,[8],8.18 µM
same,TGI,[8],> 25 µM
same,GI50,[9],13.6 µM
same,TGI,[9],> 25 µM
same,GI50,[10],14.2 µM
same,TGI,[10],> 25 µM
same,GI50,[11],17.8 µM
same,TGI,[11],> 25 µM
same,GI50,[12],9.49 µM
same,TGI,[12],> 25 µM
same,GI50,[13],9.32 µM
same,TGI,[13],> 25 µM
same,GI50,[14],4.33 µM
same,TGI,[14],18.9 µM
same,GI50,[15],22.9 µM
same,TGI,[15],> 25 µM
same,GI50,[16],19.4 µM
same,TGI,[16],> 25 µM
same,GI50,[17],15.7 µM
same,TGI,[17],> 25 µM
same,GI50,[18],9.06 µM
same,TGI,[18],> 25 µM
same,GI50,[19],6.76 µM
same,TGI,[19],20.4 µM
same,GI50,[20],14.2 µM
same,TGI,[20],> 25 µM
same,GI50,[21],8.44 µM
same,TGI,[21],> 25 µM
same,GI50,[22],11.3 µM
same,TGI,[22],> 25 µM
same,GI50,[23],7.74 µM
same,TGI,[23],> 25 µM
same,GI50,[24],7.59 µM
same,TGI,[24],> 25 µM
same,GI50,[25],16 µM
same,TGI,[25],> 25 µM
same,GI50,[26],11.1 µM
same,TGI,[26],> 25 µM
same,GI50,[27],6.82 µM
same,TGI,[27],20.2 µM
same,GI50,[28],7.69 µM
same,TGI,[28],> 25 µM
same,GI50,[29],15 µM
same,TGI,[29],> 25 µM
same,GI50,[30],7.42 µM
same,TGI,[30],23.8 µM
same,GI50,[31],7.12 µM
same,TGI,[31],> 25 µM
same,GI50,[32],16.9 µM
same,TGI,[32],> 25 µM
same,GI50,[33],15.9 µM
same,TGI,[33],> 25 µM
same,GI50,[34],14.1 µM
same,TGI,[34],> 25 µM
same,GI50,[35],15.1 µM
same,TGI,[35],> 25 µM
same,GI50,[36],9.53 µM
same,TGI,[36],> 25 µM
same,GI50,[37],13.5 µM
same,TGI,[37],> 25 µM
same,GI50,[38],7.71 µM
same,TGI,[38],> 25 µM
same,GI50,[39],7.91 µM
same,TGI,[39],24.8 µM
same,GI50,[40],15 µM
same,TGI,[40],> 25 µM
same,GI50,[41],10 µM
same,TGI,[41],> 25 µM
same,GI50,[42],9.14 µM
same,TGI,[42],> 25 µM
same,GI50,[43],11.6 µM
same,TGI,[43],> 25 µM
same,GI50,[44],11.9 µM
same,TGI,[44],> 25 µM
same,GI50,[45],9.13 µM
same,TGI,[45],> 25 µM
same,GI50,[46],15.9 µM
same,TGI,[46],> 25 µM
same,GI50,[47],10 µM
same,TGI,[47],> 25 µM
same,GI50,[48],14.3 µM
same,TGI,[48],> 25 µM
same,GI50,[49],> 25 µM
same,TGI,[49],> 25 µM
same,GI50,[50],4.59 µM
same,TGI,[50],13.3 µM
same,GI50,[51],10.1 µM
same,TGI,[51],> 25 µM
same,GI50,[52],17 µM
same,TGI,[52],> 25 µM
same,GI50,[53],9.15 µM
same,TGI,[53],> 25 µM
same,GI50,[54],10.7 µM
same,TGI,[54],> 25 µM
same,GI50,[55],11.2 µM
same,TGI,[55],> 25 µM
same,GI50,[56],7.39 µM
same,TGI,[56],> 25 µM
same,GI50,[57],6.76 µM
same,TGI,[57],> 25 µM
O=C(CCc1ccco1)NC1CCN(CC2(c3ccc(Cl)cc3)CCC2)CC1,GI50,[1],12.6 µM
same,TGI,[1],25.8 µM
same,GI50,[2],0.0318 µM
same,TGI,[2],11.9 µM
same,GI50,[3],14.6 µM
same,TGI,[3],32.5 µM
same,GI50,[4],10.5 µM
same,TGI,[4],22.7 µM
same,GI50,[5],15.2 µM
same,TGI,[5],29.6 µM
same,GI50,[6],13.3 µM
same,TGI,[6],27.2 µM
same,GI50,[7],13.7 µM
same,TGI,[7],49.9 µM
same,GI50,[8],15.3 µM
same,TGI,[8],31.8 µM
same,GI50,[9],19.1 µM
same,TGI,[9],41.3 µM
same,GI50,[11],6.02 µM
same,TGI,[11],19.7 µM
same,GI50,[12],12.2 µM
same,TGI,[12],24.5 µM
same,GI50,[13],6.27 µM
same,TGI,[13],20.3 µM
same,GI50,[14],15.5 µM
same,TGI,[14],38.9 µM
same,GI50,[15],16.3 µM
same,TGI,[15],32.7 µM
same,GI50,[16],4.69 µM
same,TGI,[16],20.3 µM
same,GI50,[17],13.6 µM
same,TGI,[17],31.4 µM
same,GI50,[18],3.44 µM
same,TGI,[18],11.8 µM
same,GI50,[58],19.5 µM
same,TGI,[58],45.8 µM
same,GI50,[19],2.17 µM
same,TGI,[19],4.62 µM
same,GI50,[20],15.3 µM
same,TGI,[20],31.5 µM
same,GI50,[21],13.5 µM
same,TGI,[21],27.6 µM
same,GI50,[23],13.8 µM
same,TGI,[23],29.4 µM
same,GI50,[24],11.5 µM
same,TGI,[24],26.7 µM
same,GI50,[25],5.79 µM
same,TGI,[25],20.1 µM
same,GI50,[26],11.8 µM
same,TGI,[26],24.1 µM
same,GI50,[27],8.37 µM
same,TGI,[27],32.9 µM
same,GI50,[28],20.8 µM
same,TGI,[28],60.2 µM
same,GI50,[29],16.9 µM
same,TGI,[29],38.7 µM
same,GI50,[30],15.1 µM
same,TGI,[30],28.4 µM
same,GI50,[31],14.6 µM
same,TGI,[31],30 µM
same,GI50,[32],14.6 µM
same,TGI,[32],36 µM
same,GI50,[33],15.6 µM
same,TGI,[33],32.4 µM
same,GI50,[34],10.3 µM
same,TGI,[34],39.2 µM
same,GI50,[35],15.1 µM
same,TGI,[35],29.1 µM
same,GI50,[36],14.5 µM
same,TGI,[36],30.1 µM
same,GI50,[37],14.1 µM
same,TGI,[37],31.1 µM
same,GI50,[38],13.2 µM
same,TGI,[38],35 µM
same,GI50,[39],8.53 µM
same,TGI,[39],22.6 µM
same,GI50,[40],15.1 µM
same,TGI,[40],30.7 µM
same,GI50,[41],15.5 µM
same,TGI,[41],30.1 µM
same,GI50,[42],13.4 µM
same,TGI,[42],26.6 µM
same,GI50,[43],16.9 µM
same,TGI,[43],31.7 µM
same,GI50,[44],15.3 µM
same,TGI,[44],29.1 µM
same,GI50,[45],15.2 µM
same,TGI,[45],28.7 µM
same,GI50,[46],16.9 µM
same,TGI,[46],32.9 µM
same,GI50,[47],15.4 µM
same,TGI,[47],33.1 µM
same,GI50,[48],15.1 µM
same,TGI,[48],30.7 µM
same,GI50,[49],10 µM
same,TGI,[49],21.7 µM
same,GI50,[50],6.93 µM
same,TGI,[50],28.7 µM
same,GI50,[51],15.5 µM
same,TGI,[51],30.5 µM
same,GI50,[52],16.2 µM
same,TGI,[52],46.6 µM
same,GI50,[53],14.5 µM
same,TGI,[53],28.3 µM
same,GI50,[54],13.1 µM
same,TGI,[54],26.4 µM
same,GI50,[55],16.3 µM
same,TGI,[55],31.2 µM
same,GI50,[56],15.9 µM
same,TGI,[56],30.8 µM
same,GI50,[57],7.37 µM
same,TGI,[57],21.3 µM
